One block for each molecule: values may come before it.
Columns and labels:
[1] = biological target: T1, Tyrosine-protein kinase JAK2 (Homo sapiens, UniProt O60674); type: ADME
Description: Inhibition of recombinant human JAK2 (808-end residues) in presence of ATP

[2] = biological target: Tyrosine-protein kinase JAK1 (Homo sapiens, UniProt P23458)
Description: Inhibition of recombinant human JAK1 (866-end residues) in presence of ATP

in vitro [3] = conditions: mouse, microsomes
Description: Metabolic stability in mouse liver microsomes assessed as parent compound remaining after 30 mins

in vitro [4] = conditions: rat, microsomes
Description: Metabolic stability in rat liver microsomes assessed as parent compound remaining after 30 mins

in vitro [5] = conditions: dog, microsomes
Description: Metabolic stability in dog liver microsomes assessed as parent compound remaining after 30 mins

in vitro [6] = conditions: human, microsomes
Description: Metabolic stability in human liver microsomes assessed as parent compound remaining after 30 mins

in vivo [7] = conditions: beagle, dog, iv, 3 mg/kg
Description: MRT in Beagle dog at 3 mg/kg, iv by LC-MS/MS analysis

in vivo [8] = conditions: ICR, mouse, po, 10 mg/kg
CYP1A2 = biological target: T2, CYP1A2 (Homo sapiens, UniProt P05177); assay: in vitro
T2 sequence (P05177 whole entry): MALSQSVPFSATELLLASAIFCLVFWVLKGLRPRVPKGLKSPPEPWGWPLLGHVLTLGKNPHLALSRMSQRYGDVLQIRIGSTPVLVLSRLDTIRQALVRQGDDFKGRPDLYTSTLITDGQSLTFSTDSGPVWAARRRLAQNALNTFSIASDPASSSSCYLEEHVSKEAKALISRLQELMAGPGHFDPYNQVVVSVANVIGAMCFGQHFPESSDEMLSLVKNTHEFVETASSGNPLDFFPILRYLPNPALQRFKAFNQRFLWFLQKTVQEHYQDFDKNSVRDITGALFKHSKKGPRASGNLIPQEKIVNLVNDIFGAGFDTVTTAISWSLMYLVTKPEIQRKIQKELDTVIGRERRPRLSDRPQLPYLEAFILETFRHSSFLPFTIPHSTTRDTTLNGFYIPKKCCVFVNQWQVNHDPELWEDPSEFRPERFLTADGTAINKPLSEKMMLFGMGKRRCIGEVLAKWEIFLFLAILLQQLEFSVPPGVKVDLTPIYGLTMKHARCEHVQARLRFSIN
Description: Inhibition of CYP1A2 (unknown origin) assessed as residual activity at 10 uM relative to control

in vivo [9] = conditions: Sprague-Dawley, rat, po, 10 mg/kg
Description: Half life in Sprague-Dawley rat at 10 mg/kg, po by LC-MS/MS analysis

in vivo [10] = conditions: Sprague-Dawley, rat, iv, 5 mg/kg
Description: AUC (0 to infinity) in Sprague-Dawley rat at 5 mg/kg, iv by LC-MS/MS analysis

CYP3A4 = CYP3A4 (Homo sapiens, UniProt P08684); assay: in vitro
Description: Inhibition of CYP3A4 (unknown origin) assessed as residual activity at 10 uM relative to control

in vivo [11] = conditions: ICR, mouse, po, 10 mg/kg; remark: listed apart in the source
in vitro [12] = conditions: human, Caco-2
in vivo [13] = conditions: ICR, mouse, po, 10 mg/kg; remark: listed apart in the source
Description: Half life in ICR mouse at 10 mg/kg, po by LC-MS/MS analysis

in vivo [14] = conditions: beagle, dog, po, 5 mg/kg
Description: Half life in Beagle dog at 5 mg/kg, po by LC-MS/MS analysis

in vivo [15] = conditions: Sprague-Dawley, rat, po, 10 mg/kg; remark: listed apart in the source
Description: MRT in Sprague-Dawley rat at 10 mg/kg, po by LC-MS/MS analysis

in vivo [16] = conditions: beagle, dog, po, 5 mg/kg; remark: listed apart in the source
Description: AUC (0 to t) in Beagle dog at 5 mg/kg, po by LC-MS/MS analysis

[17] = biological target: Voltage-gated inwardly rectifying potassium channel KCNH2 (Homo sapiens, UniProt Q12809)
Description: Inhibition of human ERG expressed in HEK293 cells by automated patch clamp method

in vivo [18] = conditions: beagle, dog, iv, 3 mg/kg; remark: listed apart in the source
CYP2D6 = CYP2D6 (Homo sapiens, UniProt P10635); assay: in vitro
Description: Inhibition of CYP2D6 (unknown origin) assessed as residual activity at 10 uM relative to control

in vivo [19] = conditions: beagle, dog, iv, 3 mg/kg; remark: listed apart in the source
Description: Half life in Beagle dog at 3 mg/kg, iv by LC-MS/MS analysis

in vivo [20] = conditions: ICR, mouse, iv, 5 mg/kg
Description: Half life in ICR mouse at 5 mg/kg, iv by LC-MS/MS analysis

in vivo [21] = conditions: Sprague-Dawley, rat, po, 10 mg/kg; remark: listed apart in the source
in vitro [22] = conditions: rat, plasma
Description: Metabolic stability in rat plasma assessed as parent compound remaining after 30 mins

in vivo [23] = conditions: Sprague-Dawley, rat, po, 10 mg/kg; remark: listed apart in the source
in vivo [24] = conditions: ICR, mouse, po, 10 mg/kg; remark: listed apart in the source
in vivo [25] = conditions: ICR, mouse, iv, 5 mg/kg; remark: listed apart in the source
Description: MRT in ICR mouse at 5 mg/kg, iv by LC-MS/MS analysis

Canis familiaris = organism: Canis familiaris; conditions: dog, in vivo, po, 5 mg/kg
Description: Oral bioavailability in Beagle dog at 5 mg/kg by LC-MS/MS analysis

in vitro [26] = conditions: human, plasma
Description: Metabolic stability in human plasma assessed as parent compound remaining after 30 mins

in vivo [27] = conditions: ICR, mouse, iv, 5 mg/kg; remark: listed apart in the source
Description: AUC (0 to infinity) in ICR mouse at 5 mg/kg, iv by LC-MS/MS analysis

in vitro [28] = conditions: human, plasma; remark: listed apart in the source
Description: Protein binding in human plasma

in vitro [29] = conditions: human, plasma; remark: listed apart in the source
Description: Metabolic stability in human plasma assessed as parent compound remaining after 120 mins

in vivo [30] = conditions: Sprague-Dawley, rat, iv, 5 mg/kg; remark: listed apart in the source
Description: MRT in Sprague-Dawley rat at 5 mg/kg, iv by LC-MS/MS analysis

in vivo [31] = conditions: ICR, mouse, po, 10 mg/kg; remark: listed apart in the source
Description: MRT in ICR mouse at 10 mg/kg, po by LC-MS/MS analysis

in vivo [32] = conditions: ICR, mouse, iv, 5 mg/kg; remark: listed apart in the source
Description: AUC (0 to t) in ICR mouse at 5 mg/kg, iv by LC-MS/MS analysis

in vivo [33] = conditions: beagle, dog, po, 5 mg/kg; remark: listed apart in the source
Description: Cmax in Beagle dog at 5 mg/kg, po by LC-MS/MS analysis

in vivo [34] = conditions: beagle, dog, iv, 3 mg/kg; remark: listed apart in the source
in vivo [35] = conditions: Sprague-Dawley, rat, po, 10 mg/kg; remark: listed apart in the source
in vivo [36] = conditions: Sprague-Dawley, rat, iv, 5 mg/kg; remark: listed apart in the source
Description: AUC (0 to t) in Sprague-Dawley rat at 5 mg/kg, iv by LC-MS/MS analysis

in vivo [37] = conditions: beagle, dog, po, 5 mg/kg; remark: listed apart in the source
Description: Tmax in Beagle dog at 5 mg/kg, po by LC-MS/MS analysis

in vitro [38] = conditions: rat, plasma; remark: listed apart in the source
Description: Protein binding in rat plasma

CYP2C19 = CYP2C19 (Homo sapiens, UniProt P33261); assay: in vitro
Description: Inhibition of CYP2C19 (unknown origin) assessed as residual activity at 10 uM relative to control

Mus musculus = organism: Mus musculus; conditions: in vivo, po, 10 mg/kg
in vivo [39] = conditions: Sprague-Dawley, rat, po, 10 mg/kg; remark: listed apart in the source
CYP2C9 = CYP2C9 (Homo sapiens, UniProt P11712); assay: in vitro
Description: Inhibition of CYP2C9 (unknown origin) assessed as residual activity at 10 uM relative to control

in vivo [40] = conditions: beagle, dog, po, 5 mg/kg; remark: listed apart in the source
Description: MRT in Beagle dog at 5 mg/kg, po by LC-MS/MS analysis

in vitro [41] = conditions: rat, plasma; remark: listed apart in the source
Description: Metabolic stability in rat plasma assessed as parent compound remaining after 120 mins

in vivo [42] = conditions: beagle, dog, po, 5 mg/kg; remark: listed apart in the source
Description: AUC (0 to infinity) in Beagle dog at 5 mg/kg, po by LC-MS/MS analysis

in vivo [43] = conditions: Sprague-Dawley, rat, iv, 5 mg/kg; remark: listed apart in the source
Description: Half life in Sprague-Dawley rat at 5 mg/kg, iv by LC-MS/MS analysis

in vivo [44] = conditions: ICR, mouse, po, 10 mg/kg; remark: listed apart in the source
in vitro [45] = conditions: human, Caco-2; remark: listed apart in the source
[46] = biological target: T1, Tyrosine-protein kinase JAK2; conditions: read-out: INH
Description: Inhibition of recombinant human JAK2 (808-end residues) at 10 uM in presence of ATP relative to control

T1 sequence (O60674 whole entry): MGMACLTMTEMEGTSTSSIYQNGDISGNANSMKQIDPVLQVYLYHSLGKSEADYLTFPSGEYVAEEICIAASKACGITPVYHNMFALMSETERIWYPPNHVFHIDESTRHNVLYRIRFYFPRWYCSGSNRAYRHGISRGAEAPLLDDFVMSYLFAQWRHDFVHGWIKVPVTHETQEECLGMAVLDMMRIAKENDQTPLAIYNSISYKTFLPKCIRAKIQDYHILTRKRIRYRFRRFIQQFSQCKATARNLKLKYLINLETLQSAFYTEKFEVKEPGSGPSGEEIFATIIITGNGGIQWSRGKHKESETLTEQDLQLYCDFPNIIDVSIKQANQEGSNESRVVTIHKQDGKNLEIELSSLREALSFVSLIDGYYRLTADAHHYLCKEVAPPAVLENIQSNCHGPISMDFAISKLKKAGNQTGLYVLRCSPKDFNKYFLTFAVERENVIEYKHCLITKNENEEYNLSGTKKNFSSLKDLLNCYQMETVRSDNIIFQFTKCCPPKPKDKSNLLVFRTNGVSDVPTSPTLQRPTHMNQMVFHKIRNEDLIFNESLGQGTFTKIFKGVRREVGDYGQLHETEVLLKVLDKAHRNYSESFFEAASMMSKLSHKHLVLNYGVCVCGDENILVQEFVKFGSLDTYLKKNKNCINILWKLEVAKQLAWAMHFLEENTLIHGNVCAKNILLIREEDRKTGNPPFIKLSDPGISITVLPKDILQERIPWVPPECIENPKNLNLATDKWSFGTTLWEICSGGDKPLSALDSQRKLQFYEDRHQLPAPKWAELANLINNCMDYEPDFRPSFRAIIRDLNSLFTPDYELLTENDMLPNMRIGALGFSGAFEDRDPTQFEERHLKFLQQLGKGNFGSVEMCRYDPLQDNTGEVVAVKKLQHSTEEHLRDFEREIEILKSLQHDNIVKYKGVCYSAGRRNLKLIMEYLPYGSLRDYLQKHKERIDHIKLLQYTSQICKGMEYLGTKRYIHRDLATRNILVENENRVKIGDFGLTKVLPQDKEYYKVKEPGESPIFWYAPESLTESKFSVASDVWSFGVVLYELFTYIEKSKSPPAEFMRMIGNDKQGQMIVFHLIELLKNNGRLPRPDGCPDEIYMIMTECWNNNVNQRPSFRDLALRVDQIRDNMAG
Tyrosine-protein kinase JAK1, sequence (P23458 whole entry): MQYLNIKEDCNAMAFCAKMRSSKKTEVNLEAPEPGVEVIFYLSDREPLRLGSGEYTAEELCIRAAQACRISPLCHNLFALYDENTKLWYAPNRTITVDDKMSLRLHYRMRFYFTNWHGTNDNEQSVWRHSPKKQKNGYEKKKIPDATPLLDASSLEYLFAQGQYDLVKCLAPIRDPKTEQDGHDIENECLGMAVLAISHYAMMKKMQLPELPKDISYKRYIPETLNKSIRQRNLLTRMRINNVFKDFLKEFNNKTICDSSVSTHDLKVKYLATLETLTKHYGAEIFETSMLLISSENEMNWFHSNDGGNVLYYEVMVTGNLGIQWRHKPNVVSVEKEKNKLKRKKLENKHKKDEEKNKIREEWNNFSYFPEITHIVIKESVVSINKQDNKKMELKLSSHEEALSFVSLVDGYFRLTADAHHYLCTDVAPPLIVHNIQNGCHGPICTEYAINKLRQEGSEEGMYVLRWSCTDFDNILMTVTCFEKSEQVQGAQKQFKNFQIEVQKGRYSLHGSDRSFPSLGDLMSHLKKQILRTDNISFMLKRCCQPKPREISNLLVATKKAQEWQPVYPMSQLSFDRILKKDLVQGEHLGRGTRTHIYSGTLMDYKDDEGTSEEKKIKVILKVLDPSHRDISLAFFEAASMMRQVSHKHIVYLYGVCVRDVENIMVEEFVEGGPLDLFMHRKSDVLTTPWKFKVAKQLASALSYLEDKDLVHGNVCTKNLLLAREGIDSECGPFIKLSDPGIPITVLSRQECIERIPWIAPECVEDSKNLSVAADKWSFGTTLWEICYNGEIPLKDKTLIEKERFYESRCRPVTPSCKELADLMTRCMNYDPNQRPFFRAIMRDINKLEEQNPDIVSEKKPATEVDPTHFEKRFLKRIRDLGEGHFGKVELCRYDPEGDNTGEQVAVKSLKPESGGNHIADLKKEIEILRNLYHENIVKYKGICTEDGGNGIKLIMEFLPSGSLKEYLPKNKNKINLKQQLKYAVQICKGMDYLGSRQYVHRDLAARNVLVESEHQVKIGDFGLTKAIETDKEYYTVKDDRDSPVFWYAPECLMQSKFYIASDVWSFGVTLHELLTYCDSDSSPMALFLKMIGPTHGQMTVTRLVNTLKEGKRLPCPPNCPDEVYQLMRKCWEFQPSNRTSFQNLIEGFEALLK
CYP2D6, sequence (P10635 whole entry): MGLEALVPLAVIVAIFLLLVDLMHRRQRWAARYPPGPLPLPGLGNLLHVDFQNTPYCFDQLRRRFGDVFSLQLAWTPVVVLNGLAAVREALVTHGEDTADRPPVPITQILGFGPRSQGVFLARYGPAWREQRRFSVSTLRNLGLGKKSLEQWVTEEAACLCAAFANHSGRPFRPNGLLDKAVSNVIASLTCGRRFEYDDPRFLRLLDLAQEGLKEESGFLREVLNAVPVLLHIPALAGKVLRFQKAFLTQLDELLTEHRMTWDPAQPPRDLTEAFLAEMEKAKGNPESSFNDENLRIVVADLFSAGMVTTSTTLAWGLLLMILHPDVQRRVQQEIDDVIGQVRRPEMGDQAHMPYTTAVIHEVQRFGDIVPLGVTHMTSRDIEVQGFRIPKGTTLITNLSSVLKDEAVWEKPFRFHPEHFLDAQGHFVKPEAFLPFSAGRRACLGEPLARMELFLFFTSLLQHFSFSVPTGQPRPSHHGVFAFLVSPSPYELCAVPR
CYP3A4, sequence (P08684 whole entry): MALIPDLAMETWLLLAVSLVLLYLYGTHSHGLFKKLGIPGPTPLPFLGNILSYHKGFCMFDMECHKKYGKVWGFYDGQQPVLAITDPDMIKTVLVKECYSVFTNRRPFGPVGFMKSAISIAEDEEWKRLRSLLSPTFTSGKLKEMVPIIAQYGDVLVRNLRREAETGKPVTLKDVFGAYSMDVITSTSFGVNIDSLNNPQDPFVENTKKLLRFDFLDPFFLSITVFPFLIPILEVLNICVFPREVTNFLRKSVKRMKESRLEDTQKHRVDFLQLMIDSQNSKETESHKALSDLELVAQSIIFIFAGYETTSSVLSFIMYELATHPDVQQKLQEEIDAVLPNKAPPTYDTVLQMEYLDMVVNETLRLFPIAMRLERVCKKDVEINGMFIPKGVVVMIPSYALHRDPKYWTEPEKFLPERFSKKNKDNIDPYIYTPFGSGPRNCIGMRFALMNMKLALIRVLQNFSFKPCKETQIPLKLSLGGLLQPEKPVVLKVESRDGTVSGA
CYP2C9, sequence (P11712 whole entry): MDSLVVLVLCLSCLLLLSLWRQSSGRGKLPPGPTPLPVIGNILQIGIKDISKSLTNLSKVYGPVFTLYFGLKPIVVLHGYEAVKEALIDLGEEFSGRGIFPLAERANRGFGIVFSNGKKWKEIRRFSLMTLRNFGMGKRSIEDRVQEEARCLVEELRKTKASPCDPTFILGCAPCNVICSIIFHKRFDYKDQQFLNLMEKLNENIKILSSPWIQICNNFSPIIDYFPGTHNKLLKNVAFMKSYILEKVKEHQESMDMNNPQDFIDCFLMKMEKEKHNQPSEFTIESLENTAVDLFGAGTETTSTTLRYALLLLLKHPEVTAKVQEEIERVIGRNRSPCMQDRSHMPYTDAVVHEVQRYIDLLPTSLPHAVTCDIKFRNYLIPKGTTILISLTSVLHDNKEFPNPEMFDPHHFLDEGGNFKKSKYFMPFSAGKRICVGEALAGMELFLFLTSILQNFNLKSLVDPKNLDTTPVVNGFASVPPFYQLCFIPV
Voltage-gated inwardly rectifying potassium channel KCNH2, sequence (Q12809 whole entry): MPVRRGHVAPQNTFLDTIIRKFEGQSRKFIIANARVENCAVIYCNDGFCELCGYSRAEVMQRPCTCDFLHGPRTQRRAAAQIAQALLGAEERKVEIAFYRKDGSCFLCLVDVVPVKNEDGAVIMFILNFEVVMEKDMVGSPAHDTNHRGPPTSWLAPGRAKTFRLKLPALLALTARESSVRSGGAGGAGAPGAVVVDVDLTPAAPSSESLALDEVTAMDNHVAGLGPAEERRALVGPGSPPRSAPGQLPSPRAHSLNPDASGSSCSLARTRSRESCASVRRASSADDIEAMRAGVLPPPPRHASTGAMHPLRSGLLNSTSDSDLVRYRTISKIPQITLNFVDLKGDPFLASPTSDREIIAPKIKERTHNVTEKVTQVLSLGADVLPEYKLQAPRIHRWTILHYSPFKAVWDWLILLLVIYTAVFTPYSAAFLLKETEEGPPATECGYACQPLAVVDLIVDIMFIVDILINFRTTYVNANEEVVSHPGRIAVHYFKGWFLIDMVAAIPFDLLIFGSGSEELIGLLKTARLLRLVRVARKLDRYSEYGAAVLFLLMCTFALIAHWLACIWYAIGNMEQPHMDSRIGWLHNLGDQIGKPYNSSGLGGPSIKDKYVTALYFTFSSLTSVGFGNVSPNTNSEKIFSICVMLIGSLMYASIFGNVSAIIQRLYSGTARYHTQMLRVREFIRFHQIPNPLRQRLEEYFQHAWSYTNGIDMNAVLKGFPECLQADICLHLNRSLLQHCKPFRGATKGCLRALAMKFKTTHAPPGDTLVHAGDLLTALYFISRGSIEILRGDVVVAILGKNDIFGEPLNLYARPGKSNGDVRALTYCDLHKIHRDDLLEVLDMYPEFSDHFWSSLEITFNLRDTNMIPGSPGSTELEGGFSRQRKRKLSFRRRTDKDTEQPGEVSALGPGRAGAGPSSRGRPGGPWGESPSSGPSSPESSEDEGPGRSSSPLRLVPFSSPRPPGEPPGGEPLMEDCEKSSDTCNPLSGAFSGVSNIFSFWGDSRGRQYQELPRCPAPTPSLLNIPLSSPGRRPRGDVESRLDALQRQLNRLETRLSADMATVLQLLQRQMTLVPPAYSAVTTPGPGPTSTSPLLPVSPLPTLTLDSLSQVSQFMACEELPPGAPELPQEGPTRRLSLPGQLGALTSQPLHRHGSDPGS

SMILES: CN(c1ncnc2[nH]ccc12)[C@@H]1CCN(S(=O)(=O)N2CCCCC2)C1
- IC50 [1]: 3900 nM
- IC50 [2]: 66 nM

SMILES: N#CCC(=O)N1CC[C@@H](N(CC2CC2)c2ncnc3[nH]ccc23)C1
- IC50 [1]: 1700 nM
- IC50 [2]: 160 nM

SMILES: CCN(c1ncnc2[nH]ccc12)[C@@H]1CCN(C(=O)CC#N)C1
- IC50 [1]: 1300 nM
- IC50 [2]: 62 nM

SMILES: CN(c1ncnc2[nH]ccc12)[C@@H]1CCN(S(=O)(=O)c2ccc(C(F)(F)F)cc2)C1
- remaining at 0.5 h (in vitro [3]): 8.4%
- remaining at 0.5 h (in vitro [4]): 11.4%
- IC50 [1]: 3400 nM
- remaining at 0.5 h (in vitro [5]): 14.2%
- IC50 [2]: 9.5 nM
- remaining at 0.5 h (in vitro [6]): 21%

SMILES: CN(c1ncnc2[nH]ccc12)[C@@H]1CCN(C(=O)CC#N)C1
- remaining at 0.5 h (in vitro [3]): > 100%
- MRT (in vivo [7]): 2.4 h
- Cmax (in vivo [8]): 1000 ng/mL
- activity at 10 µM (CYP1A2): 89.3%
- half-life (in vivo [9]): 2.1 h
- remaining at 0.5 h (in vitro [4]): 92.8%
- AUC(0-inf) (in vivo [10]): 950 ng·h/mL
- activity at 10 µM (CYP3A4): 98.2%
- AUC(0-t) (in vivo [11]): 1900 ng·h/mL
- Papp B→A (in vitro [12]): 7.7 ×10⁻⁶ cm/s
- half-life (in vivo [13]): 2.1 h
- half-life (in vivo [14]): 1.7 h
- MRT (in vivo [15]): 2.9 h
- AUC(0-t) (in vivo [16]): 6400 ng·h/mL
- IC50 [17]: 93000 nM
- AUC(0-inf) (in vivo [18]): 2200 ng·h/mL
- activity at 10 µM (CYP2D6): > 100%
- half-life (in vivo [19]): 1.6 h
- remaining at 0.5 h (in vitro [5]): 92.8%
- half-life (in vivo [20]): 0.9 h
- Cmax (in vivo [21]): 1900 ng/mL
- remaining at 0.5 h (in vitro [22]): > 100%
- Tmax (in vivo [23]): 0.3 h
- AUC(0-inf) (in vivo [24]): 2100 ng·h/mL
- MRT (in vivo [25]): 1.4 h
- F (Canis familiaris): 180%
- remaining at 0.5 h (in vitro [26]): 96.3%
- AUC(0-inf) (in vivo [27]): 680 ng·h/mL
- fraction unbound (in vitro [28]): 0.853
- remaining at 2 h (in vitro [29]): 99.8%
- MRT (in vivo [30]): 0.9 h
- MRT (in vivo [31]): 3.1 h
- AUC(0-t) (in vivo [32]): 510 ng·h/mL
- Cmax (in vivo [33]): 1900 ng/mL
- AUC(0-t) (in vivo [34]): 2100 ng·h/mL
- AUC(0-t) (in vivo [35]): 4100 ng·h/mL
- AUC(0-t) (in vivo [36]): 930 ng·h/mL
- Tmax (in vivo [37]): 1.1 h
- fraction unbound (in vitro [38]): 0.823
- activity at 10 µM (CYP2C19): 91.8%
- F (Mus musculus): 190%
- AUC(0-inf) (in vivo [39]): 4300 ng·h/mL
- activity at 10 µM (CYP2C9): > 100%
- MRT (in vivo [40]): 3.1 h
- remaining at 0.5 h (in vitro [6]): 97.6%
- remaining at 2 h (in vitro [41]): > 100%
- AUC(0-inf) (in vivo [42]): 6500 ng·h/mL
- half-life (in vivo [43]): 0.7 h
- Tmax (in vivo [44]): 0.3 h
- Papp A→B (in vitro [45]): 3.8 ×10⁻⁶ cm/s
- inhibition at 10 µM [46]: > 90%

SMILES: N#Cc1cccc(S(=O)(=O)N2CC[C@@H](Nc3ncnc4[nH]ccc34)C2)c1
- IC50 [1]: 1900 nM
- IC50 [2]: 510 nM

SMILES: CC(C)S(=O)(=O)N1CC[C@@H](N(C)c2ncnc3[nH]ccc23)C1
- IC50 [1]: 4800 nM
- IC50 [2]: 170 nM

SMILES: CN(c1ncnc2[nH]ccc12)[C@@H]1CCN(CCC#N)C1
- IC50 [1]: 1900 nM
- IC50 [2]: 53 nM

SMILES: CC(C)CC(=O)N1CC[C@@H](N(C)c2ncnc3[nH]ccc23)C1
- IC50 [1]: 3900 nM
- IC50 [2]: 70 nM

SMILES: CN(c1ncnc2[nH]ccc12)[C@@H]1CCN(S(C)(=O)=O)C1
- IC50 [1]: 4700 nM
- IC50 [2]: 70 nM

SMILES: CN(c1ncnc2[nH]ccc12)[C@H]1CN(C(=O)CC#N)CC1(C)C
- IC50 [1]: 5900 nM
- IC50 [2]: 260 nM

SMILES: CC(C)COC(=O)N1CC[C@@H](N(C)c2ncnc3[nH]ccc23)C1
- IC50 [1]: 4300 nM
- IC50 [2]: 110 nM

SMILES: CN(c1ncnc2[nH]ccc12)[C@@H]1CCN(S(=O)(=O)c2cn(C)cn2)C1
- IC50 [1]: 19000 nM
- IC50 [2]: 650 nM

Now from value to molecule:

- IC50 [1]: 130 nM
- IC50 [2]: 25 nM
SMILES: CN(c1ncnc2[nH]ccc12)[C@@H]1CCN(S(=O)(=O)c2ccccc2F)C1

- remaining at 0.5 h (in vitro [3]): 3.1%
- remaining at 0.5 h (in vitro [4]): 2.5%
- IC50 [1]: 18 nM
- remaining at 0.5 h (in vitro [5]): 10.4%
- IC50 [2]: 1.9 nM
- remaining at 0.5 h (in vitro [6]): 13.4%
SMILES: CN(c1ncnc2[nH]ccc12)[C@@H]1CCN(S(=O)(=O)c2cccc([N+](=O)[O-])c2)C1

- IC50 [1]: 110 nM
- IC50 [2]: 19 nM
SMILES: CCN(c1ncnc2[nH]ccc12)[C@@H]1CCN(S(=O)(=O)c2cccc(C#N)c2)C1

- IC50 [1]: 550 nM
- IC50 [2]: 22 nM
SMILES: CN(c1ncnc2[nH]ccc12)[C@@H]1CCN(C(=O)Nc2ccccc2)C1

- IC50 [1]: 450 nM
- IC50 [2]: 16 nM
SMILES: CN(c1ncnc2[nH]ccc12)[C@H]1CN(C(=O)CC#N)CC12CCC2

- remaining at 0.5 h (in vitro [3]): 10%
- remaining at 0.5 h (in vitro [4]): 3.7%
- IC50 [1]: 57 nM
- remaining at 0.5 h (in vitro [5]): 31.6%
- IC50 [2]: 4.1 nM
- remaining at 0.5 h (in vitro [6]): 26.3%
SMILES: CN(c1ncnc2[nH]ccc12)[C@@H]1CCN(S(=O)(=O)c2cccc(C#N)c2)C1

From ChEMBL document CHEMBL4219073, “Development of selective inhibitors for the treatment of rheumatoid arthritis: (R)-3-(3-(Methyl(7H-pyrrolo[2,3-d]pyrimidin-4-yl)amino)pyrrolidin-1-yl)-3-oxopropanenitrile as a JAK1-selective inhibitor” (Bioorg Med Chem, 2018)
